Tested on: MV-4-11 cells
Test: Gene expression microarray analysis (Affymetrix PrimeView) and GSEA
Type: cell-based, human
Conditions: ProbeSet 11758779_at; LIST B

## Nc1ccc(-c2cccs2)cc1NC(=O)c1ccc2c(c1)cc(C1CC1)n2CCN1CCOCC1 [ACY-1035]
  RFU, TMEM50B: 85.32 RFU

— publication PMC5218480 (PLoS ONE, 2017)
